Laboratory results published in patent US8877933B2, “Thermodynamically stable form of a tosylate salt” (Bayer Intellectual Property GmbH, priority 2004, dated 2014).

Experiment: Thermodynamic and storage stability of the crystal forms of the compound of the formula (I)
Type: physicochemical
Conditions: for thermodynamic stability of the crystal form: room temperature

Structure (SMILES)	thermodynamic stability of the crystal form	storage stability (after processing via suspensions)
CNC(=O)c1cc(Oc2ccc(NC(=O)Nc3ccc(Cl)c(C(F)(F)F)c3)cc2)ccn1.Cc1ccc(S(=O)(=O)O)cc1 [polymorph II, 4-{4-[({[4-Chloro-3-(trifluoromethyl)phenyl]amino}carbonyl)amino]phenoxy}-N-methylpyridine-2-carboxamide tosylate in the polymorph II]	metastable	
CNC(=O)c1cc(Oc2ccc(NC(=O)Nc3ccc(Cl)c(C(F)(F)F)c3)cc2)ccn1.Cc1ccc(S(=O)(=O)O)cc1 [polymorph I, 4-{4-[({[4-chloro-3-(trifluoromethyl)phenyl]amino}carbonyl)-amino]phenoxy}-N-methylpyridine-2-carboxamide tosylate in the polymorph I]	thermodynamically stable at room temperature	storage-stable even after processing via suspensions
